pIC50: −log10 of the molar value.
Each compound was assayed on TEAD transcriptional activity (assay: TEAD reporter activity inhibition test (luciferase reporter, MCF7 cell line)). Conditions: Homo sapiens; TEAD (GTIIC) firefly luciferase reporter MCF7 cell line, 24 hours, ONE-Glo luminescence.
Type: cell-based
Method: Experimental Example 1: TEAD Reporter Activity Inhibition Test
The ability of the synthetic compounds to inhibit TEAD target gene transcription was measured. This evaluation method measures the transcriptional activity of TEAD by measuring the luciferase luminescence expressed when TEAD binds to a target gene and activates transcription using the MCF7 cell line (BPS Bioscience, Inc., USA) in which a firefly luciferase reporter gene has been introduced into the specific binding structure of TEAD, GTIIC (5′-ACATTCCA-3′). Cell lines were cultured in MEM medium added with 10% FBS, 1% Penicillin/Streptomycin, 1% non-essential amino acids, 10 μg/ml insulin, and 400 μg/ml Geneticin, and Geneticin was excluded when testing for inhibition of TEAD reporter activity. […] cells/100 μl were dispensed into a white 96-well plate and cultured for 6 hours. 50 μl of the test compound diluted to 3× concentration was mixed into each well. After 24 hours of cell culture, the luciferase signal was measured by luminescence using the ONE-Glo luciferase assay system (Promega, E6120) following the manufacturer's protocol. The 50% inhibition value (IC50) for TEAD transcriptional activity was calculated using GraphPad Prism 9.
If the IC50 value is less than 100 nM, it is indicated as A, if it is at least 100 nM but less than 500 nM, it is indicated as B, and if it is 500 nM or more, it is indicated as C.

Row | Structure (SMILES) | pIC50
1 | CNS(=O)(=O)c1ccc2c(c1)c(-c1ccn(C)n1)cn2-c1ccc(C(F)(F)F)cc1 [Example 3, N-methyl-3-(1-methyl-1H-pyrazol-3-yl)-1-(4-(trifluoromethyl)phenyl)-1H-indole-5-sulfonamide] | 6.30 to 7.00
2 | CCNS(=O)(=O)c1ccc2c(c1)c(-c1cn(C)cn1)cn2-c1ccc(C(F)(F)F)cc1 [Example 7, N-ethyl-3-(1-methyl-1H-imidazol-4-yl)-1-(4-(trifluoromethyl)phenyl)-1H-indole-5-sulfonamide] | 6.30 to 7.00
3 | CNS(=O)(=O)c1ccc2c(c1)c(-c1ccc(C)s1)cn2-c1ccc(C(F)(F)F)cc1 [Example 9, N-methyl-3-(5-methylthiophen-2-yl)-1-(4-(trifluoromethyl)phenyl)-1H-indole-5-sulfonamide] | 6.30 to 7.00
4 | CNS(=O)(=O)c1ccc2c(c1)c(-c1nccnc1C)cn2-c1ccc(C(F)(F)F)cc1 [Example 1, N-methyl-3-(3-methylpyrazin-2-yl)-1-(4-(trifluoromethyl)phenyl)-1H-indole-5-sulfonamide] | ≤ 6.30
5 | CNS(=O)(=O)c1ccc2c(c1)c(-c1cn(C)cn1)cn2-c1ccc(C2CCCCC2)cc1 [Example 18, 1-(4-cyclohexylphenyl)-N-methyl-3-(1-methyl-1H-imidazol-4-yl)-1H-indole-5-sulfonamide] | ≤ 6.30
6 | CNS(=O)(=O)c1ccc2c(c1)c(-c1cn(C(C)C)cn1)cn2-c1ccc(C(F)(F)F)cc1 [Example 6, 3-(1-isopropyl-1H-imidazol-4-yl)-N-methyl-1-(4-(trifluoromethyl)phenyl)-1H-indole-5-sulfonamide] | ≤ 6.30
7 | CNS(=O)(=O)c1ccc2c(c1)c(-c1cnn(C)c1)cn2-c1ccc(C(F)(F)F)cc1 [Example 4, N-methyl-3-(1-methyl-1H-pyrazol-4-yl)-1-(4-(trifluoromethyl)phenyl)-1H-indole-5-sulfonamide] | 6.30 to 7.00
8 | CNS(=O)(=O)c1ccc2c(c1)c(-c1cn(C)cn1)cn2-c1cccc(C(F)(F)F)c1 [Example 21, N-methyl-3-(1-methyl-1H-imidazol-4-yl)-1-(3-(trifluoromethyl)phenyl)-1H-indole-5-sulfonamide] | 6.30 to 7.00
9 | CNS(=O)(=O)c1ccc2c(c1)c(-c1cn(C)cn1)cn2-c1ccc(C(F)(F)F)cn1 [Example 12, N-methyl-3-(1-methyl-1H-imidazol-4-yl)-1-(5-(trifluoromethyl)pyridin-2-yl)-1H-indole-5-sulfonamide] | 6.30 to 7.00
10 | CN(C)S(=O)(=O)c1ccc2c(c1)c(-c1cn(C)cn1)cn2-c1ccc(C(F)(F)F)cc1 [Example 19, N,N-dimethyl-3-(1-methyl-1H-imidazol-4-yl)-1-(4-(trifluoromethyl)phenyl)-1H-indole-5-sulfonamide] | ≤ 6.30
11 | CNS(=O)(=O)c1ccc2c(c1)c(-c1cn(C)cn1)cn2-c1ccc(Cl)cc1 [Example 14, 1-(4-chlorophenyl)-N-methyl-3-(1-methyl-1H-imidazol-4-yl)-1H-indole-5-sulfonamide] | 6.30 to 7.00
12 | CNS(=O)(=O)c1ccc2c(c1)c(-c1cn(C)cn1)cn2-c1ccc(OC(F)(F)F)cc1 [Example 5, N-methyl-3-(1-methyl-1H-imidazol-4-yl)-1-(4-(trifluoromethoxy)phenyl)-1H-indole-5-sulfonamide] | 6.30 to 7.00
13 | CNS(=O)(=O)c1ccc2c(c1)c(-c1ccncc1)cn2-c1ccc(C(F)(F)F)cc1 [Example 15, N-methyl-3-(pyridin-4-yl)-1-(4-(trifluoromethyl)phenyl)-1H-indole-5-sulfonamide] | 6.30 to 7.00
14 | CNS(=O)(=O)c1ccc2c(c1)c(-c1cn(C)cn1)cn2-c1ccc(C#N)cc1 [Example 22, 1-(4-cyanophenyl)-N-methyl-3-(1-methyl-1H-imidazol-4-yl)-1H-indole-5-sulfonamide] | ≤ 6.30
15 | CNS(=O)(=O)c1ccc2c(c1)c(-c1ccccc1)cn2-c1ccc(C(F)(F)F)cc1 [Example 17, N-methyl-3-phenyl-1-(4-(trifluoromethyl)phenyl)-1H-indole-5-sulfonamide] | 6.30 to 7.00

Second part, the compound after the results:

Row | pIC50 | Structure (SMILES)
16 | 6.30 to 7.00 | CNS(=O)(=O)c1ccc2c(-c3cn(C)cn3)cn(-c3ccc(C(F)(F)F)cc3)c2c1 [Example 33, N-methyl-3-(1-methyl-1H-imidazol-4-yl)-1-(4-(trifluoromethyl)phenyl)-1H-indole-6-sulfonamide]
17 | > 7.00 | CNS(=O)(=O)c1ccc2c(c1)c(-c1cccc(F)c1F)cn2-c1ccc(C(F)(F)F)cc1 [Example 25, 3-(2,3-difluorophenyl)-N-methyl-1-(4-(trifluoromethyl)phenyl)-1H-indole-5-sulfonamide]
18 | 6.30 to 7.00 | CNS(=O)(=O)c1ccc2c(c1)c(-c1cn(CCS(C)(=O)=O)cn1)cn2-c1ccc(C(F)(F)F)cc1 [Example 48, N-methyl-3-(1-(2-(methylsulfonyl)ethyl)-1H-imidazol-4-yl)-1-(4-(trifluoromethyl)phenyl)-1H-indole-5-sulfonamide]
19 | 6.30 to 7.00 | CNS(=O)(=O)c1ccc2c(c1)c(-c1cnco1)cn2-c1ccc(C(F)(F)F)cc1 [Example 41, N-methyl-3-(oxazol-5-yl)-1-(4-(trifluoromethyl)phenyl)-1H-indole-5-sulfonamide]
20 | > 7.00 | CNS(=O)(=O)c1ccc2c(c1)c(-c1cn(CC(F)(F)F)cn1)cn2-c1ccc(C(F)(F)F)cc1 [Example 37, N-methyl-3-(1-(2,2,2-trifluoroethyl)-1H-imidazol-4-yl)-1-(4-(trifluoromethyl)phenyl)-1H-indole-5-sulfonamide]
21 | ≤ 6.30 | CNS(=O)(=O)c1ccc2c(c1)c(-c1cn(CC(=O)N(C)C)cn1)cn2-c1ccc(C(F)(F)F)cc1 [Example 47, N,N-dimethyl-2-(4-(5-(N-methylsulfamoyl)-1-(4-(trifluoromethyl)phenyl)-1H-indol-3-yl)-1H-imidazole-1-yl) acetamide]
22 | > 7.00 | CNS(=O)(=O)c1ccc2c(c1)c(N1CC(F)C1)cn2-c1ccc(C(F)(F)F)cc1 [Example 46, 3-(3-fluoroazetidin-1-yl)-N-methyl-1-(4-(trifluoromethyl)phenyl)-1H-indole-5-sulfonamide]
23 | > 7.00 | CNS(=O)(=O)c1ccc2c(c1)c(-c1cn(C)cn1)cn2-c1ccc(C(C)(C)C)cc1 [Example 40, 1-(4-(t-butyl)phenyl)-N-methyl-3-(1-methyl-1H-imidazol-4-yl)-1H-indole-5-sulfonamide]
24 | 6.30 to 7.00 | CNS(=O)(=O)c1ccc2c(c1)c(-c1ccc(C(F)(F)F)o1)cn2-c1ccc(C(F)(F)F)cc1 [Example 34, N-methyl-3-(5-(trifluoromethyl)furan-2-yl)-1-(4-(trifluoromethyl)phenyl)-1H-indole-5-sulfonamide]
25 | 6.30 to 7.00 | CNS(=O)(=O)c1ccc2c(c1)c(-c1cn(C3COC3)cn1)cn2-c1ccc(C(F)(F)F)cc1 [Example 35, N-methyl-3-(1-(oxetan-3-yl)-1H-imidazol-4-yl)-1-(4-(trifluoromethyl)phenyl)-1H-indole-5-sulfonamide]
26 | > 7.00 | CNS(=O)(=O)c1ccc2c(c1)c(-c1cn3c(n1)CCC3)cn2-c1ccc(C(F)(F)F)cc1 [Example 45, 3-(6,7-dihydro-5H-pyrrolo[1,2-a]imidazol-2-yl)-N-methyl-1-(4-(trifluoromethyl)phenyl)-1H-indole-5-sulfonamide]
27 | ≤ 6.30 | CNS(=O)(=O)c1ccc2c(c1)c(-c1cn(C)cn1)cn2-c1ccccc1 [Example 26, N-methyl-3-(1-methyl-1H-imidazol-4-yl)-1-phenyl-1H-indole-5-sulfonamide]
28 | 6.30 to 7.00 | CNS(=O)(=O)c1ccc2c(c1)c(-c1ccc(C)o1)cn2-c1ccccc1 [Example 24, N-methyl-3-(5-methylfuran-2-yl)-1-phenyl-1H-indole-5-sulfonamide]
29 | 6.30 to 7.00 | CNS(=O)(=O)c1ccc2c(c1)c(-c1c[nH]cn1)cn2-c1ccc(C(F)(F)F)cc1 [Example 29, 3-(1H-imidazol-4-yl)-N-methyl-1-(4-(trifluoromethyl)phenyl)-1H-indole-5-sulfonamide]
30 | > 7.00 | CNS(=O)(=O)c1ccc2c(c1)c(-c1cn(Cc3ccccc3F)cn1)cn2-c1ccc(C(F)(F)F)cc1 [Example 30, 3-(1-(2-fluorobenzyl)-1H-imidazol-4-yl)-N-methyl-1-(4-(trifluoromethyl)phenyl)-1H-indole-5-sulfonamide]
31 | 6.30 to 7.00 | CNS(=O)(=O)c1ccc2c(c1)c(-c1ccc(Cl)o1)cn2-c1ccc(C(F)(F)F)cc1 [Example 36, 3-(5-chlorofuran-2-yl)-N-methyl-1-(4-(trifluoromethyl)phenyl)-1H-indole-5-sulfonamide]
32 | 6.30 to 7.00 | CNS(=O)(=O)c1ccc2c(c1)c(-c1cn(C)cn1)cn2-c1ccc(C)cc1 [Example 39, N-methyl-3-(1-methyl-1H-imidazol-4-yl)-1-(p-tolyl)-1H-indole-5-sulfonamide]
33 | > 7.00 | CNS(=O)(=O)c1ccc2c(c1)c(-c1cn(C)cn1)cn2-c1ccc(C(F)(F)F)c(Cl)c1 [Example 27, 1-(3-chloro-4-(trifluoromethyl)phenyl)-N-methyl-3-(1-methyl-1H-imidazol-4-yl)-1H-indole-5-sulfonamide]

Source: patent US20260124197A1, “NOVEL HETEROBICYCLIC COMPOUND FOR INHIBITING YAP-TEAD INTERACTION AND PHARMACEUTICAL COMPOSITION COMPRISING SAME” (priority 2022, published 2026)
